# Tested on: patients with advanced renal cell carcinoma
# Settings: in vivo
# Description: Treatment modifications, including interruptions and dose reductions, were allowed to manage adverse events. […] Patients were allowed to continue study treatment beyond radiographic progression at the discretion of the investigator. On-study crossover between treatment groups was not permitted. Safety evaluations, including physical examination, vital signs, and laboratory assessments, were conducted every 2 weeks for the first 8 weeks and then every 4 weeks thereafter. ECG assessments were performed every 4 weeks for the first 8 weeks and then every 12 weeks. A safety follow-up visit was scheduled 30 days after treatment discontinuation. Adverse events were assessed by investigators and graded according to CTCAE version 4.0.
# Safety analyses were limited to patients who received any amount of study treatment.
structure (smiles),measurement,setting,value
COc1cc2nccc(Oc3ccc(NC(=O)C4(C(=O)Nc5ccc(F)cc5)CC4)cc3)c2cc1OC [cabozantinib],"Abdominal pain, Grade 1-2",human,48 (15) n (%)
same,"Abdominal pain, Grade 3",human,12 (4) n (%)
same,"Abdominal pain, Grade 4",human,0 n (%)
same,"Alanine aminotransferase increased, Grade 1-2",human,47 (14) n (%)
same,"Alanine aminotransferase increased, Grade 3",human,7 (2) n (%)
same,"Alanine aminotransferase increased, Grade 4",human,1 (<1) n (%)
same,"Anemia, Grade 1-2",human,42 (13) n (%)
same,"Anemia, Grade 3",human,19 (6) n (%)
same,"Anemia, Grade 4",human,0 n (%)
same,"Any AE, Grade 1-2",human,70 (21) n (%)
same,"Any AE, Grade 3",human,210 (63) n (%)
same,"Any AE, Grade 4",human,25 (8) n (%)
same,"Arthralgia, Grade 1-2",human,43 (13) n (%)
same,"Arthralgia, Grade 3",human,1 (<1) n (%)
same,"Arthralgia, Grade 4",human,0 n (%)
same,"Aspartate aminotransferase increased, Grade 1-2",human,55 (17) n (%)
same,"Aspartate aminotransferase increased, Grade 3",human,5 (2) n (%)
same,"Aspartate aminotransferase increased, Grade 4",human,0 n (%)
same,"Asthenia, Grade 1-2",human,49 (15) n (%)
same,"Asthenia, Grade 3",human,15 (5) n (%)
same,"Asthenia, Grade 4",human,0 n (%)
same,"Back pain, Grade 1-2",human,54 (16) n (%)
same,"Back pain, Grade 3",human,8 (2) n (%)
same,"Back pain, Grade 4",human,0 n (%)
same,"Blood creatinine increased, Grade 1-2",human,17 (5) n (%)
same,"Blood creatinine increased, Grade 3",human,1 (<1) n (%)
same,"Blood creatinine increased, Grade 4",human,0 n (%)
same,"Constipation, Grade 1-2",human,89 (27) n (%)
same,"Constipation, Grade 3",human,1 (<1) n (%)
same,"Constipation, Grade 4",human,0 n (%)
same,"Cough, Grade 1-2",human,67 (20) n (%)
same,"Cough, Grade 3",human,1 (<1) n (%)
same,"Cough, Grade 4",human,0 n (%)
same,"Decreased appetite, Grade 1-2",human,146 (44) n (%)
same,"Decreased appetite, Grade 3",human,10 (3) n (%)
same,"Decreased appetite, Grade 4",human,0 n (%)
same,"Diarrhea, Grade 1-2",human,206 (62) n (%)
same,"Diarrhea, Grade 3",human,43 (13) n (%)
same,"Diarrhea, Grade 4",human,0 n (%)
same,"Diarrhea, all grades",human,249 (75%) n (%)
same,"Diarrhea, grade 3 or 4",human,43 [13%] n [%]
same,Discontinuation due to a primary reason of AE (excluding disease progression),human,10%
same,"Dizziness, Grade 1-2",human,41 (12) n (%)
same,"Dizziness, Grade 3",human,1 (<1) n (%)
same,"Dizziness, Grade 4",human,0 n (%)
same,"Dry skin, Grade 1-2",human,37 (11) n (%)
same,"Dry skin, Grade 3",human,0 n (%)
same,"Dry skin, Grade 4",human,0 n (%)
same,"Dysgeusia, Grade 1-2",human,80 (24) n (%)
same,"Dysgeusia, Grade 3",human,0 n (%)
same,"Dysgeusia, Grade 4",human,0 n (%)
same,"Dyspepsia, Grade 1-2",human,40 (12) n (%)
same,"Dyspepsia, Grade 3",human,1 (<1) n (%)
same,"Dyspepsia, Grade 4",human,0 n (%)
same,"Dysphonia, Grade 1-2",human,68 (21) n (%)
same,"Dysphonia, Grade 3",human,2 (<1) n (%)
same,"Dysphonia, Grade 4",human,0 n (%)
same,"Dyspnoea, Grade 1-2",human,56 (17) n (%)
same,"Dyspnoea, Grade 3",human,10 (3) n (%)
same,"Dyspnoea, Grade 4",human,0 n (%)
same,"Edema peripheral, Grade 1-2",human,39 (12) n (%)
same,"Edema peripheral, Grade 3",human,0 n (%)
same,"Edema peripheral, Grade 4",human,0 n (%)
same,"Epistaxis, Grade 1-2",human,14 (4) n (%)
same,"Epistaxis, Grade 3",human,0 n (%)
same,"Epistaxis, Grade 4",human,0 n (%)
same,"Fatigue, Grade 1-2",human,159 (48) n (%)
same,"Fatigue, Grade 3",human,36 (11) n (%)
same,"Fatigue, Grade 4",human,0 n (%)
same,"Fatigue, all grades",human,195 (59%) n (%)
same,"Fatigue, grade 3 or 4",human,36 [11%] n [%]
same,"Flatulence, Grade 1-2",human,33 (10) n (%)
same,"Flatulence, Grade 3",human,0 n (%)
same,"Flatulence, Grade 4",human,0 n (%)
same,"Grade 3 and 4 adverse events: Hyperglycemia, %",human,1 (1) %
same,"Grade 3 or 4 Adverse Events: Hypercalcemia (event of interest), %",human,(1) %
same,"Grade 3 or 4 Adverse Events: Hyperglycemia, %",human,(1) %
same,"Grade 3 or 4 Adverse Events: PPES, %",human,(8) %
same,Grade 3 or 4 adverse events,human,235 (71%) n (%)
same,Grade 5 adverse events regardless of causality,human,7.9%
same,"Headache, Grade 1-2",human,43 (13) n (%)
same,"Headache, Grade 3",human,1 (<1) n (%)
same,"Headache, Grade 4",human,0 n (%)
same,"Hyperglycemia, Grade 1-2",human,15 (5) n (%)
same,"Hyperglycemia, Grade 3",human,2 (<1) n (%)
same,"Hyperglycemia, Grade 4",human,1 (<1) n (%)
same,"Hypertension, Grade 1-2",human,73 (22) n (%)
same,"Hypertension, Grade 3",human,49 (15) n (%)
same,"Hypertension, Grade 4",human,0 n (%)
same,"Hypertension, grade 3 or 4",human,49 [15%] n [%]
same,"Hypertriglyceridemia, Grade 1-2",human,17 (5) n (%)
same,"Hypertriglyceridemia, Grade 3",human,4 (1) n (%)
same,"Hypertriglyceridemia, Grade 4",human,0 n (%)
same,"Hypomagnesaemia, Grade 1-2",human,38 (12) n (%)
same,"Hypomagnesaemia, Grade 3",human,6 (2) n (%)
same,"Hypomagnesaemia, Grade 4",human,10 (3) n (%)
same,"Hypothyroidism, Grade 1-2",human,76 (23) n (%)
same,"Hypothyroidism, Grade 3",human,0 n (%)
same,"Hypothyroidism, Grade 4",human,0 n (%)
same,"Insomnia, Grade 1-2",human,32 (10) n (%)
same,"Insomnia, Grade 3",human,0 n (%)
same,"Insomnia, Grade 4",human,0 n (%)
same,"Mucosal inflammation, Grade 1-2",human,60 (18) n (%)
same,"Mucosal inflammation, Grade 3",human,5 (2) n (%)
same,"Mucosal inflammation, Grade 4",human,0 n (%)
same,"Muscle spasms, Grade 1-2",human,45 (14) n (%)
same,"Muscle spasms, Grade 3",human,0 n (%)
same,"Muscle spasms, Grade 4",human,0 n (%)
same,"Nausea, Grade 1-2",human,158 (48) n (%)
same,"Nausea, Grade 3",human,15 (5) n (%)
same,"Nausea, Grade 4",human,0 n (%)
same,"Nausea, all grades",human,173 (52%) n (%)
same,Overall incidence of adverse events regardless of causality,human,100%
same,"Pain in extremity, Grade 1-2",human,46 (14) n (%)
same,"Pain in extremity, Grade 3",human,5 (2) n (%)
same,"Pain in extremity, Grade 4",human,0 n (%)
same,"Palmar-plantar erythrodysaesthesia syndrome, Grade 1-2",human,115 (35) n (%)
same,"Palmar-plantar erythrodysaesthesia syndrome, Grade 3",human,27 (8) n (%)
same,"Palmar-plantar erythrodysaesthesia syndrome, Grade 4",human,0 n (%)
same,Patients with dose reductions,human,62%
same,"Proteinuria, Grade 1-2",human,37 (11) n (%)
same,"Proteinuria, Grade 3",human,8 (2) n (%)
same,"Proteinuria, Grade 4",human,0 n (%)
same,"Pruritus, Grade 1-2",human,27 (8) n (%)
same,"Pruritus, Grade 3",human,0 n (%)
same,"Pruritus, Grade 4",human,0 n (%)
same,"Pyrexia, Grade 1-2",human,31 (9) n (%)
same,"Pyrexia, Grade 3",human,3 (<1) n (%)
same,"Pyrexia, Grade 4",human,0 n (%)
same,"Rash, Grade 1-2",human,52 (16) n (%)
same,"Rash, Grade 3",human,2 (<1) n (%)
same,"Rash, Grade 4",human,0 n (%)
same,Serious adverse events ≥grade 3,human,130 (40%) n (%)
same,"Stomatitis, Grade 1-2",human,65 (20) n (%)
same,"Stomatitis, Grade 3",human,8 (2) n (%)
same,"Stomatitis, Grade 4",human,0 n (%)
same,Study treatment discontinuation due to diarrhea,human,0.9%
same,Treatment discontinuation due to an adverse event not related to disease progression,human,12%
same,"Vomiting, Grade 1-2",human,106 (32) n (%)
same,"Vomiting, Grade 3",human,7 (2) n (%)
same,"Vomiting, Grade 4",human,0 n (%)
same,"Weight decreased, Grade 1-2",human,105 (32) n (%)
same,"Weight decreased, Grade 3",human,9 (3) n (%)
same,"Weight decreased, Grade 4",human,0 n (%)
same,Grade 5 adverse events assessed as treatment-related,,One

# From patent US11141413B2, “Method of treating renal cell carcinoma using N-(4-(6,7-dimethoxyquinolin-4-yloxy)phenyl)-N′-(4-fluorophenyl)cyclopropane-1,1-dicarboxamide, (2S)-hydroxybutanedioate” (Exelixis, Inc., priority 2016, dated 2021)
